The source of these data is patent US20250134904A1, “SOLID PHARMACEUTICAL FORMULATIONS OF VARENICLINE” (MEDICHEM, S.A., priority 2021, published 2025).

The conditions of data set [1]: based on lifetime exposure; cited from earlier work.
The nature of data set [2]: HPLC-MS quantification of N-nitroso-varenicline impurity (II) in tablets, after manufacture and after storage/stress. In kind it is physicochemical. Conditions: starting material before tablet manufacture. On the procedure:
The N-nitroso-varenicline-impurity (II) level in the solid pharmaceutical formulation of the present invention may be detected by high performance liquid chromatography (HPLC) method disclosed in the present invention.
HPLC Method Used for Analyzing N-Nitroso-Varenicline Impurity (II)
The chromatographic separation was carried out using an Acquity UPLC HSS PFP, 2.1×100 mm, 1.8 μm at 35±2° C.
Mobile phase A: 0.05% (v/v) formic acid solution in water.
Mobile phase A is prepared as follows: Dilute with water, 0.5 mL of formic acid in a 1000 mL volumetric flask.
Mobile phase B: Acetonitrile LC-MS grade.
The chromatograph was programmed as follows: initial 2 min isocratic 90% mobile phase A; 2-11 min linear gradient to 50% mobile phase A; 11-16 min isocratic 50% mobile phase A; 16-18 min linear gradient to 90% mobile phase A; 18-23 min isocratic 90% mobile phase A.
The chromatograph was equipped with equipped with a mass detector. The acquisition was made in Single Ion Monitoring. The ion with m/z 241.0 was monitored at 0.8 points/s. The ionization mode was positive electrospray (ESI+), the source temperature was set at 130° C., desolvation gas flow was at 500 L/h and the capillary voltage was set at 3 kV. The cone voltage was set at 20 V for the ion with m/z 241.0. […]
The quantification (μg/g or ppm) of N-nitroso-varenicline impurity (II) in test specimen was performed as follows: […]

Where a name gives a salt, the structure may show the parent alone.

As to `O=NN1CC2CC(C1)c1cc3nccnc3cc12` [N-nitroso-varenicline impurity (II)], in data set [1], the “intake considered reasonably safe for humans (FDA)” value is given as “up to 37 ng/day”.

As to `c1cnc2cc3c(cc2n1)C1CNCC3C1` [varenicline tartrate, 7,8,9,10-tetrahydro-6,10-methano-6H-pyrazino[2,3-h][3]benzazepine], in data set [2], the “N-nitroso-varenicline impurity (II) content of the varenicline tartrate used as starting material” value was “less than 0.4 ppm”.
